Source: BigSolDB 2.1

CO/N=C(\C(=O)N[C@@H]1C(=O)N2C(C(=O)O)=C(CSC(=O)c3ccco3)CS[C@H]12)c1csc(N)n1.Cl
Conditions	solubility (mole fraction)
in acetone, 283.36 K	1e-05
in acetone, 288.2 K	1.6e-05
in acetone, 293.15 K	2.7e-05
in acetone, 298.05 K	4.3e-05
in acetone, 302.87 K	7e-05
in acetone, 307.65 K	0.00011
in acetone, 313.45 K	0.000193
in acetone, 318.4 K	0.000313
in acetone, 322.35 K	0.000478
in ethanol, 283.35 K	0.00178
in ethanol, 288.15 K	0.00192
in ethanol, 293.15 K	0.00209
in ethanol, 298.15 K	0.00233
in ethanol, 303.1 K	0.00262
in ethanol, 307.95 K	0.00292
in ethanol, 313.55 K	0.00335
in ethanol, 318.75 K	0.00384
in ethanol, 322.65 K	0.00421
in isopropanol, 283.2 K	0.000235
in isopropanol, 288.2 K	0.000255
in isopropanol, 293.15 K	0.000311
in isopropanol, 298.15 K	0.000402
in isopropanol, 303.05 K	0.000535
in isopropanol, 308 K	0.000649
in isopropanol, 312.8 K	0.000793
in isopropanol, 318.45 K	0.001
in isopropanol, 324.35 K	0.00134
in methanol, 283.25 K	0.00952
in methanol, 288.25 K	0.00992
in methanol, 293.15 K	0.0105
in methanol, 297.85 K	0.0112
in methanol, 300.55 K	0.0116
in methanol, 307.35 K	0.0127
in methanol, 313.3 K	0.0137
in methanol, 317.95 K	0.0148
in methanol, 320.65 K	0.0155
in n-propanol, 283.55 K	0.000534
in n-propanol, 288.55 K	0.000573
in n-propanol, 293.35 K	0.000646
in n-propanol, 298.35 K	0.000717
in n-propanol, 303.35 K	0.000802
in n-propanol, 308.05 K	0.000922
in n-propanol, 312.95 K	0.00103
in n-propanol, 317.95 K	0.00117
in n-propanol, 322.75 K	0.00135
